The results in this text go back to ChEMBL document CHEMBL3865829 (Eur J Med Chem, 2016).

For orientation: IC50 means the concentration that inhibits the measured activity by half. Broadly, the GI50 is the concentration at which growth is held to half of that of the control. Lower therefore signals more potent growth inhibition.

Experiment [1] in a line: Cytotoxicity against human A549 cells after 72 hrs by MTT assay. Format: functional, cell-based. Particulars: A549, 72 h. On the technique in general: Tetrazolium dyes change colour on reduction, which living cells bring about.
Experiment [2] is described as follows: Cytotoxicity against human MDA-MB-231 cells after 72 hrs by MTT assay. It is filed as functional, cell-based. Particulars: MDA-MB-231, 72 h.
The nature of experiment [3]: Cytotoxicity against human HepG2 cells after 72 hrs by MTT assay. It is filed as functional, cell-based. Particulars: HepG2, 72 h.
A further experiment in a line: cells. Particulars: Homo sapiens, HCT-116, 72 h.
Experiment [4] can be described thus: Cytotoxicity against human U87MG cells after 72 hrs by MTT assay. Format: functional, cell-based, U-87MG ATCC. Particulars: U-87 MG.
The target of experiment [5] is Phosphatidylinositol 4,5-bisphosphate 3-kinase catalytic subunit alpha isoform (Homo sapiens, UniProt P42336). As to the kind of experiment: Inhibition of PI3Kalpha (unknown origin) using PIP2 as substrate after 1 hr in presence of ATP by kinase-glo luminescence assay. (Kinase-Glo reads ATP consumption through a luciferase reaction.)
The test system of a further experiment is HCT-116. As to the kind of experiment: Potency index, ratio of GSK2126458 IC50 to compound IC50 for human HCT116 cells. Format: functional.
The nature of experiment [6]: Cytotoxicity against human NCI60 cells after 48 hrs by SRB assay. Format: functional. Particulars: NCI60, 48 h. Background: In SRB staining, fixed cells bind dye roughly in proportion to their protein.

Sequence of Phosphatidylinositol 4,5-bisphosphate 3-kinase catalytic subunit alpha isoform (P42336 whole entry, canonical isoform): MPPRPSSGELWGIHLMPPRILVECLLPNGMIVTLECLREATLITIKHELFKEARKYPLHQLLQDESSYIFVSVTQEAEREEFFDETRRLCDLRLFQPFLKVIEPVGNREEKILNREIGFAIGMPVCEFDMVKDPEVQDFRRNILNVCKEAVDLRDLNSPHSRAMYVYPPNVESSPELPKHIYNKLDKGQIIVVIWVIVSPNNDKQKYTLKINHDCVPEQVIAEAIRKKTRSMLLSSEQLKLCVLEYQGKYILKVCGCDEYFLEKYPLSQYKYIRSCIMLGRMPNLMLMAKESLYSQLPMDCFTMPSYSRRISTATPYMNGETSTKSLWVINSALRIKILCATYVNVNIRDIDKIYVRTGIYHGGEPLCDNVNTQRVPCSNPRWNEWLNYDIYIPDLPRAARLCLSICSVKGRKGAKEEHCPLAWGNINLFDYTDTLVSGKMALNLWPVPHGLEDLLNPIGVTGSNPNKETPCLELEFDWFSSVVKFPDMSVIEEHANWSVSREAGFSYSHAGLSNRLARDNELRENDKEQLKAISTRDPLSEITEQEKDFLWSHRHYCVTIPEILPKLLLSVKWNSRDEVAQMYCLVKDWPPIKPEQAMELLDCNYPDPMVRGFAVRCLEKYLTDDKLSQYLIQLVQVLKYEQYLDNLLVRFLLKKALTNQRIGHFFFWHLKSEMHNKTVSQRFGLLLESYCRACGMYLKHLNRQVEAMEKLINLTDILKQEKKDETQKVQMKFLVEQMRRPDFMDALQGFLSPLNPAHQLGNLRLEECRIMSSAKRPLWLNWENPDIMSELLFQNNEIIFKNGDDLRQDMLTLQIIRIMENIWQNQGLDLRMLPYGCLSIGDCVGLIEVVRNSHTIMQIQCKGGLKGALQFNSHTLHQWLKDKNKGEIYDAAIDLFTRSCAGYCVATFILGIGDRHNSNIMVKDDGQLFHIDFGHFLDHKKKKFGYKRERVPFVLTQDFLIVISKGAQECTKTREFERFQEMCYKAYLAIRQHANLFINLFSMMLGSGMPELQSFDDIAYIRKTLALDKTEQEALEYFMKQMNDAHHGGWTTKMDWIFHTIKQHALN

As to `COc1ncc(-c2ccc3nccc(-c4ccc(Cn5cncn5)cc4)c3c2)cc1NS(=O)(=O)c1ccc(F)cc1`, the IC50 in experiment [1] was 33 nM; in experiment [2] it was 283 nM; in experiment [3] it was 12700 nM; in “cells”, 26 nM.

For `COc1ncc(-c2ccc3nccc(-c4ccc(CN(C)CCN(C)C)cc4)c3c2)cc1NS(=O)(=O)c1ccc(F)cc1F`, the values for the concentration for half-maximal inhibition (IC50) in experiment [1], in experiment [4] and in experiment [5] were 13 nM, 254 nM and 2.5 nM, respectively.

With `COc1ncc(-c2ccc3nccc(-c4ccc(Cn5cccn5)cc4)c3c2)cc1NS(=O)(=O)c1ccc(F)cc1F`, the results for the half-maximal inhibitory concentration (IC50) (in experiment [1]; in experiment [4]; in the experiment “cells”) were 30.8 nM, 1600 nM and 53.1 nM, respectively.

For the molecule `O=S(=O)(Nc1cc(-c2ccc3nccc(-c4ccc(Cn5cncn5)cc4)c3c2)cnc1Cl)c1ccc(F)cc1F`, the IC50 in experiment [1] amounted to 642 nM; in experiment [2], 340 nM; in experiment [3] it was 2040 nM; in the experiment “cells”, 36 nM.

On to `COc1ncc(-c2ccc3nccc(-c4ccc(CN5CCN(C(C)C)CC5)cc4)c3c2)cc1NS(=O)(=O)c1ccc(F)cc1F`, for which the half-inhibitory concentration (IC50) in experiment [1] came out at 1.9 nM; in experiment [4], 468 nM; in “cells”, 24.7 nM.

`CN(C)Cc1ccc(-c2ccnc3ccc(-c4cnc(Cl)c(NS(=O)(=O)c5ccc(F)cc5F)c4)cc23)cc1`: the half-maximal inhibitory concentration (IC50) in experiment [1] stood at 251 nM; in experiment [2] it was 53 nM; in experiment [3], 3860 nM; in “cells”, 24 nM.

With `COc1ncc(-c2ccc3nccc(-c4ccc(CN5CCCCC5)cc4)c3c2)cc1NS(=O)(=O)c1ccc(F)cc1F`, the half-inhibitory concentration (IC50) in experiment [1] was 15.5 nM; in experiment [4], 32 nM; in the experiment “cells”, 34.1 nM.

As to `COc1ncc(-c2ccc3nccc(-c4ccc(Cn5ccnc5)cc4)c3c2)cc1NS(=O)(=O)c1ccc(F)cc1F`, the IC50 in experiment [1] turned out to be 30.8 nM; in experiment [4], 600 nM; in the experiment “cells”, 32.6 nM.

As for `O=S(=O)(Nc1cc(-c2ccc3nccc(-c4ccc(CN5CCOCC5)cc4)c3c2)cnc1Cl)c1ccc(F)cc1F`, the half-inhibitory concentration (IC50) came to 24 nM in experiment [1], 2420 nM in experiment [2], 2310 nM in experiment [3] and 51 nM in “cells”.

On to `COc1ncc(-c2ccc3nccc(N4CCCC4)c3c2)cc1NS(=O)(=O)c1ccc(F)cc1F`, for which the 50% inhibitory concentration (IC50) in experiment [1] is 3410 nM; in experiment [4], 6690 nM; in “cells” it was 3320 nM.

With `COc1ncc(-c2ccc3nccc(-c4ccc(CN5CCN(C)CC5)cc4)c3c2)cc1NS(=O)(=O)c1ccc(F)cc1F`, the values for the IC50 (in experiment [1]; in experiment [4]; in “cells”) were 13.3 nM, 336 nM and 43.9 nM, respectively.

`COc1ncc(-c2ccc3nccc(N4CCOCC4)c3c2)cc1NS(=O)(=O)c1ccc(F)cc1F`: the IC50 in experiment [1] is 2400 nM; in experiment [4] it was above 100000 nM; in “cells” it was 4430 nM.

Turning to `COc1ncc(-c2ccc3nccc(-c4ccc(CN(C)C)cc4)c3c2)cc1NS(=O)(=O)c1ccc(F)cc1`, the half-maximal inhibitory concentration (IC50) in experiment [1] turned out to be 25 nM; in experiment [2], 350 nM; in experiment [3] it was 3020 nM; in “cells” it was 24 nM.

In the case of `COc1ncc(-c2ccc3nccc(-c4ccc(CN5CCCC5)cc4)c3c2)cc1NS(=O)(=O)c1ccc(F)cc1F`, the IC50 stood at 37.5 nM in experiment [1], 159 nM in experiment [4] and 18.8 nM in the experiment “cells”.

For `COc1ncc(-c2ccc3nccc(-c4ccc(CN(C)CCO)cc4)c3c2)cc1NS(=O)(=O)c1ccc(F)cc1`, the IC50 in experiment [1] came out at 22 nM; in experiment [2], 210 nM; in experiment [3], 1850 nM; in “cells”, 25 nM.

For the molecule `COc1ncc(-c2ccc3nccc(-c4ccc(CN5CCOCC5)cc4)c3c2)cc1NS(=O)(=O)c1ccc(F)cc1`, the IC50 in experiment [1] came out at 17 nM; in experiment [2], 1970 nM; in experiment [3] it was 27200 nM; in the experiment “cells”, 30 nM.

In the case of `O=S(=O)(Nc1cc(-c2ccc3nccc(-c4ccc(Cn5cncn5)cc4)c3c2)cnc1Cl)c1ccc(F)cc1`, the IC50 in experiment [1] worked out at 178 nM; in experiment [2] it was 228 nM; in experiment [3], 9600 nM; in the experiment “cells”, 33 nM.

For `COc1ncc(-c2ccc3nccc(-c4ccc(CN(C)CCO)cc4)c3c2)cc1NS(=O)(=O)c1ccc(F)cc1F`, the results for the IC50 (in experiment [1]; in “cells”) were 20 nM and 4.7 nM, respectively. In addition, the “Ratio IC50” value in the experiment on HCT-116 is above 30.

Turning to `COc1ncc(-c2ccc3nccc(-c4ccc(CN5CCN(CCO)CC5)cc4)c3c2)cc1NS(=O)(=O)c1ccc(F)cc1F`, the IC50 in experiment [1] is 24.8 nM; in experiment [4], 21.2 nM; in the experiment “cells”, 21.7 nM.

Take `COc1ncc(-c2ccc3nccc(-c4ccc(CN5CCOCC5)cc4)c3c2)cc1NS(=O)(=O)c1ccc(F)cc1F`: the IC50 in experiment [1] was found to be 70 nM; in experiment [5], 1.1 nM.

Turning to `COc1ncc(-c2ccc3nccc(-c4ccc(Cn5cncn5)cc4)c3c2)cc1NS(=O)(=O)c1ccc(F)cc1F`, the half-inhibitory concentration (IC50) was determined as 16 nM in experiment [1] and 8.7 nM in “cells”. In addition, in the experiment on HCT-116, the “Ratio IC50” value stood at 18.

For `CN(CCO)Cc1ccc(-c2ccnc3ccc(-c4cnc(Cl)c(NS(=O)(=O)c5ccc(F)cc5F)c4)cc23)cc1`, the IC50 came out at 121 nM in experiment [1], 337 nM in experiment [2], 2880 nM in experiment [3] and 41 nM in the experiment “cells”.

Consider `COc1ncc(-c2ccc3nccc(-c4ccc(CN(CCO)CCO)cc4)c3c2)cc1NS(=O)(=O)c1ccc(F)cc1F`, for which the figures for the IC50 (in experiment [1]; in experiment [4]; in “cells”) were 2.8 nM, 143 nM and 3.8 nM, respectively.

`COc1ncc(-c2ccc3nccc(Cl)c3c2)cc1NS(=O)(=O)c1ccc(F)cc1F`: the values for the IC50 (in experiment [1]; in experiment [4]; in the experiment “cells”) were 2940 nM, above 100000 nM and 6590 nM, respectively.

Take `COc1ncc(-c2ccc3nccc(-c4ccc(Cn5ccnc5C)cc4)c3c2)cc1NS(=O)(=O)c1ccc(F)cc1F`: the half-inhibitory concentration (IC50) in experiment [1] was found to be 10.2 nM; in experiment [4] it was 40 nM; in the experiment “cells”, 14.2 nM.

Take `COc1ncc(-c2ccc3nccc(-c4ccc(C)cc4)c3c2)cc1NS(=O)(=O)c1ccc(F)cc1F`: the values for the IC50 (in experiment [1]; in experiment [4]; in “cells”) were 1240 nM, 67000 nM and 2540 nM, respectively.

In turn, `CC(=O)O[C@H]1C(=O)[C@@]2(C)[C@H]([C@H](OC(=O)c3ccccc3)[C@]3(O)C[C@H](OC(=O)[C@H](O)[C@@H](NC(=O)c4ccccc4)c4ccccc4)C(C)=C1C3(C)C)[C@]1(OC(C)=O)CO[C@@H]1C[C@@H]2O` [PACLITAXEL] yielded a concentration for 50% growth inhibition (GI50) in experiment [6] of 31.5 nM.

For `O=S(=O)(Nc1cc(-c2ccc3nccc(-c4ccc(CN5CCOCC5)cc4)c3c2)cnc1Cl)c1ccc(F)cc1`, the half-maximal inhibitory concentration (IC50) in experiment [1] was found to be 53 nM; in experiment [2] it was 2580 nM; in experiment [3] it was 7740 nM; in “cells” it was 41 nM.

In experiment [6], `CC[C@@]1(O)C(=O)OCc2c1cc1n(c2=O)Cc2cc3ccccc3nc2-1` [CAMPTOTHECIN] returned a GI50 of 39.8 nM.

Turning to `CCN(CC)Cc1ccc(-c2ccnc3ccc(-c4cnc(OC)c(NS(=O)(=O)c5ccc(F)cc5F)c4)cc23)cc1`, the half-inhibitory concentration (IC50) is 22 to 22.1 nM in experiment [1], 4890 nM in experiment [4] and 5 nM in the experiment “cells”.

Regarding `CCN(Cc1ccc(-c2ccnc3ccc(-c4cnc(OC)c(NS(=O)(=O)c5ccc(F)cc5F)c4)cc23)cc1)C1CCCCC1`, the IC50 worked out at 20.2 nM in experiment [1], 1450 nM in experiment [4] and 222 nM in the experiment “cells”.

`CN(CCO)Cc1ccc(-c2ccnc3ccc(-c4cnc(Cl)c(NS(=O)(=O)c5ccc(F)cc5)c4)cc23)cc1`: the IC50 in experiment [1] is 15 nM; in experiment [2], 260 nM; in experiment [3] it was 1910 nM; in “cells”, 24 nM.
